Laboratory results from patent US20090221559A1 (priority 2005, published 2009).
pEC50, pIC50: −log10 of the molar value. Like-named read-outs stand apart in the source and are kept apart here.

Experiments:
[1] = target: T1, HCV NS5B polymerase (His-tagged, C-terminal 21 amino acid deleted NS5B, HC-J4) (Hepatitis C virus genotype 1b, UniProt O92972); assay: NS5b polymerase assay (biochemical RdRp assay, 3H-GTP incorporation, SPA beads); design: species or system HCV genotype 1b; details: for pIC50: 3H-GTP incorporation, 2 h at 25° C.; for IC50: NS5B Polymerase Assay IC50 (μM)
T1 construct: The cDNA encoding NS5B amino acid 1-570 (HC-J4, genotype 1b); His tag (His6, from pET-21b) (C); made in house; host or cells: E. coli BL21 (DE3)
Summary of the method: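 3H-GTP incorporation into newly made RNA was captured on SPA beads added in EDTA after 2 h at 25 °C. Compounds in DMSO met preformed enzyme–template complex (200 nM truncated His-NS5B, HC-J4 1b; biotin-oligo(rG13)/poly(rC)) for 15 min at RT, then 600 nM GTP, 5 mM MgCl2, Tris pH 7.5 started polymerization.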

[2] = system: HCV replicon RNA replication in Huh-7 luc/neo (Huh-Luc) cells; assay: HCV replicon assay (stable replicon cell reporter assay, luciferase read-out); format: cell-based, HCV type 1b; details: for EC50: read-out: Replicon Assay EC50 (μM), Huh-Luc cells, incubation of three days, luciferase activity
Summary of the method: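 Three-day compound exposure used Huh-Luc cells, which harbour an autonomously replicating genotype 1b NS3-NS5B replicon expressing luciferase and neo^R. Luciferase signal served as the replication read-out, and dose-response curves came from several concentrations per compound.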

[3] = NS5B Polymerase Assay IC50, 200 nM enzyme
[4] = Hepatitis C virus, Huh-7, 72 h, read-out: Replicon Assay EC50, Huh-Luc cells, three days incubation, luciferase activity
[5] = 200 nM enzyme, read-out: NS5B Polymerase Assay IC50
[6] = Huh-Luc cells, three days incubation, luciferase activity, read-out: Replicon Assay EC50

T1 sequence (O92972 2417-3000, looked up, stated change not applied): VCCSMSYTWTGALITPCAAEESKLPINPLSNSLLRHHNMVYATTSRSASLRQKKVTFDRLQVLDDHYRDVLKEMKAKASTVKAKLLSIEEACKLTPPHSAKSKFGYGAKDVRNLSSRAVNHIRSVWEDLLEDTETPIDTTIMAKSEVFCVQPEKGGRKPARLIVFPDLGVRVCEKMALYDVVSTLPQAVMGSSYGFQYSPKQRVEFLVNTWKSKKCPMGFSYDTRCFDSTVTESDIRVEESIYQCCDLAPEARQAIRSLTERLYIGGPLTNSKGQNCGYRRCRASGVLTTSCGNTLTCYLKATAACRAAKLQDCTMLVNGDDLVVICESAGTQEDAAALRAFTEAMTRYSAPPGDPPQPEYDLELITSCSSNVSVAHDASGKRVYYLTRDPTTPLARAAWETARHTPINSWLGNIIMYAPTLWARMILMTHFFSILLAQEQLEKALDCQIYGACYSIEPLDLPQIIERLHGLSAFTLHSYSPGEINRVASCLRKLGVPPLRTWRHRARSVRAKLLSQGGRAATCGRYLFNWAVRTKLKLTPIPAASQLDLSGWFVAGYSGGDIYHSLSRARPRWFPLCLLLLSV

Row | Compound | pIC50 [1, 3] | pEC50 [2, 4] | IC50 [1] | EC50 ([2]; Hepatitis C virus, Huh-7, 72 h) | also measured
1 | CC(=O)N1c2ccccc2NC2=C(C(=O)CC(C)(C)C2)C1c1c(F)cccc1Cl (stereo not drawn) [compound 24] | < 4.37 | 4.89 |  |  | 
2 | COc1ccc(C2CC(=O)C3=C(C2)Nc2ccccc2NC3c2cc(OC)c(OC)cc2Br)cc1 (stereo not drawn) [compound 400] |  |  | > 42.7 µM | 3.28 µM | 
3 | COc1ccc(C2CC(=O)C3=C(C2)Nc2ccccc2NC3c2cccc(OCc3ccccc3)c2)cc1 (stereo not drawn) [compound 326] |  |  | > 33.3 µM | 4.69 µM | 
4 | COc1ccc(OC)c(C2C3=C(CC(C)(C)CC3=O)Nc3ccccc3N2C(=O)C(F)(F)F)c1Br (stereo not drawn) [compound 96] | < 4.37 | 4.94 |  |  | 
5 | CC(=O)N1c2ccccc2NC2=C(C(=O)CC(C)(C)C2)C1c1ccc(Cl)cc1Cl (single isomer, unassigned) [compound 36, 10-Acetyl-11-(2,4-dichlorophenyl)-2,3,4,5,10,11-hexahydro-3,3-dimethyl-1H-dibenzo[b,e][1,4]diazepin-1-one] | < 4.38 | 4.77 |  |  | 
6 | CC1(C)CC(=O)C2=C(C1)Nc1cc(F)c(F)cc1NC2c1ccc(Cl)cc1Cl (stereo not drawn) [compound 466, 7,8-difluoro-11-(2,4-dichlorophenyl)-3,3-dimethyl-2,3,4,5,10,11-hexahydro-1H-dibenzo[b,e][1,4]diazepin-1-one] |  |  | 68.1 µM | 6.81 µM | 
7 | CC(=O)N1c2ccccc2NC2=C(C(=O)CC(c3ccccc3OCc3ccccc3)C2)C1c1cccc(OCc2ccccc2)c1 (single isomer, unassigned) [compound 190] |  |  |  |  | pIC50 ([1]; read-out: NS5B Polymerase Assay IC50, 200 nM enzyme): < 4.37; pEC50 ([2]; read-out: Replicon Assay EC50, Huh-Luc cells, three days incubation, luciferase activity): 5.96
8 | CCC(C)Oc1ccccc1C1C2=C(CC(c3ccc(OC)c(OC)c3)CC2=O)Nc2ccccc2N1C(=O)c1ccccc1 (stereo not drawn) [compound 183] | < 4.37 | 5.88 |  |  | 
9 | CC(=O)N1c2ccccc2NC2=C(C(=O)CC(C)(C)C2)C1CC1CC=C(C)C1(C)C (stereo not drawn) [compound 246] | < 4.37 | 5.73 |  |  | 
10 | COc1ccc(C2C3=C(CC(c4ccc(Cl)cc4)CC3=O)Nc3ccccc3N2C(=O)C(F)(F)F)cc1 (mixture of isomers) [compound 200] |  |  |  |  | pIC50 [1, 5]: < 4.48; pEC50 [2, 6]: 5.02
11 | COc1ccc(C2CC(=O)C3=C(C2)Nc2ccccc2N(C(=O)c2ccccc2)C3c2ccc(C)cc2)cc1 (mixture of isomers) [compound 206] |  |  |  |  | pIC50 [1, 5]: < 4.48; pEC50 [2, 6]: 4.96
12 | CCCCCOc1ccc(C2C3=C(CC(C)(C)CC3=O)Nc3ccccc3N2C(=O)c2ccccc2F)cc1 (stereo not drawn) [compound 67] | < 4.37 | 5.25 |  |  | 
13 | CCCOc1ccccc1C1CC(=O)C2=C(C1)Nc1ccccc1N(C(=O)C(F)(F)F)C2c1ccc(OC)cc1 (stereo not drawn) [compound 163] |  |  |  |  | pIC50 [1, 5]: < 4.37; pEC50 [2, 6]: 5.75
14 | CC(=O)N1c2ccccc2NC2=C(C(=O)CC(C)(C)C2)[C@@H]1c1ccc(OCc2ccccc2)cc1 (single isomer, unassigned) [compound 302] | 4.03 | 5.73 |  |  | 
15 | COc1ccc(C2C3=C(CC(C)(C)CC3=O)Nc3ccccc3N2C(C)=O)c(OC)c1 (stereo not drawn) [compound 132] | < 4.37 | 4.89 |  |  | 
16 | Cc1cc2c(cc1C)NC(c1ccc(Cl)c([N+](=O)[O-])c1)C1=C(CC(C)(C)CC1=O)N2 (stereo not drawn) [compound 452] |  |  | > 42.7 µM | 19.7 µM | 
17 | O=C1C[C@@H](c2ccc3c(c2)OCO3)CC2=C1[C@H](c1cc3c(cc1Br)OCO3)Nc1ccccc1N2 [compound 493] |  |  | > 42.7 µM | 1.3 µM | 
18 | CSc1ccc(C2Nc3ccccc3NC3=C2C(=O)CC(c2ccc4c(c2)OCO4)C3)cc1 (stereo not drawn) [compound 368] |  |  | > 42.7 µM | 14.9 µM | 
19 | CCCCC(=O)N1c2ccccc2NC2=C(C(=O)CC(C)(C)C2)C1c1ccc(Cl)cc1 (stereo not drawn) [compound 7] | < 4.37 | 5.08 |  |  | 
20 | CCC(=O)N1c2ccccc2NC2=C(C(=O)CC(c3ccc(OC)c(OC)c3)C2)C1c1cccc(Cl)c1 (mixture of isomers) [compound 193] |  |  |  |  | pIC50 [1, 5]: < 4.48; pEC50 [2, 6]: 5.23
21 | Cc1ccc(C2CC(=O)C3=C(C2)Nc2ccccc2N(C(=O)CCC(=O)O)C3c2ccc(C)cc2)cc1 (stereo not drawn) [compound 161] | 4.52 | < 4.60 |  |  | 
22 | COc1ccc(C2C3=C(CC(C)(C)CC3=O)Nc3ccccc3N2C(=O)C(F)(F)F)c(OC)c1 (stereo not drawn) [compound 58] | < 4.37 | 5.06 |  |  | 
23 | COc1cc2c(cc1OC)NC(c1ccc(Cl)cc1Cl)C1=C(CC(C)(C)CC1=O)N2 (stereo not drawn) [compound 467, 7,8-dimethoxy-11-(2,4-dichlorophenyl)-3,3-dimethyl-2,3,4,5,10,11-hexahydro-1H-dibenzo[b,e][1,4]diazepin-1-one] |  |  | > 133 µM | 30 µM | 
24 | COc1ccc(C2CC(=O)C3=C(C2)Nc2ccccc2NC3c2ccccc2C(F)(F)F)cc1 (stereo not drawn) [compound 324] |  |  | > 42.6 µM | 18.5 µM | 

Row | Compound | pIC50 [1, 3] | pEC50 [2, 4] | IC50 [1] | EC50 ([2]; Hepatitis C virus, Huh-7, 72 h) | also measured
25 | CCOc1ccccc1C1CC(=O)C2=C(C1)Nc1ccccc1N(C(=O)C(F)(F)F)C2c1ccc(OC)cc1 (stereo not drawn) [compound 173] |  |  |  |  | pIC50 [1, 5]: < 4.37; pEC50 [2, 6]: 6.68
26 | CC(=O)N1c2ccccc2NC2=C(C(=O)CC(C)(C)C2)C1c1cccnc1 (stereo not drawn) [compound 258] | < 4.37 | < 4.49 |  |  | 
27 | CCOc1ccc(C2C3=C(CC(C)(C)CC3=O)Nc3ccccc3N2C(C)=O)cc1 (stereo not drawn) [compound 57] | < 4.37 | 5.35 |  |  | 
28 | COc1cccc2c1NC1=C(C(=O)CC(C)(C)C1)C(c1ccc(Cl)cc1Cl)N2C(C)=O (stereo not drawn) [compound 320] | 5.17 | 4.48 |  |  | 
29 | COc1ccc([C@@H]2CC(=O)C3=C(C2)Nc2ccccc2N[C@H]3c2ccc3c(c2)OCO3)cc1OC [compound 494] |  |  | > 42.7 µM | 21.7 µM | 
30 | CCOc1ccc(C2C3=C(CC(C)(C)CC3=O)Nc3ccccc3N2C(=O)Cc2ccccc2)cc1 (stereo not drawn) [compound 86] | < 4.37 | 5.01 |  |  | 
31 | CC(=O)N1c2ccccc2NC2=C(C(=O)CCC2)C1c1ccc(Cl)cc1Cl (stereo not drawn) [compound 291, 10-Acetyl-11-(2,4-dichlorophenyl)-2,3,4,5,10,11-hexahydro-1H-dibenzo[b,e][1,4]-diazepin-1-one] | < 4.37 | < 4.49 |  |  | 
32 | COc1ccc(C2C3=C(CC(c4ccco4)CC3=O)Nc3ccccc3N2C(C)=O)cc1OC (stereo not drawn) [compound 293] | < 4.37 | < 4.49 |  |  | 
33 | COc1cccc(C2C3=C(CC(C)(C)CC3=O)Nc3ccccc3N2C(=O)Cc2ccc(Cl)cc2)c1 (stereo not drawn) [compound 34] | < 4.37 | 5.17 |  |  | 
34 | CC1(C)CC(=O)C2=C(C1)Nc1ccccc1NC2c1cccc(Oc2ccccc2Br)c1 (stereo not drawn) [compound 446, 11-[3-(2-bromophenoxy)phenyl]-3,3-dimethyl-2,3,4,5,10,11-hexahydro-1H-dibenzo[b,e][1,4]diazepin-1-one] |  |  | > 133 µM | 4.12 µM | 
35 | COc1ccc(OC)c(C2C3=C(CC(C)(C)CC3=O)Nc3ccccc3N2C(C)=O)c1 (stereo not drawn) [compound 118] | < 4.37 | < 4.49 |  |  | 
36 | CC1(C)CC(=O)C2=C(C1)Nc1ccccc1N(C(=O)Cc1ccccc1)C2c1cc2c(cc1Br)OCO2 (stereo not drawn) [compound 268] | < 4.37 | 5.04 |  |  | 
37 | Cc1ccc(C2CC(=O)C3=C(C2)Nc2ccccc2NC3c2ccccc2F)cc1 (stereo not drawn) [compound 412] |  |  | > 33.3 µM | 16.7 µM | 
38 | CCOc1cc(C2Nc3ccccc3NC3=C2C(=O)CC(c2ccc(OC)cc2)C3)cc(Br)c1O (stereo not drawn) [compound 378] |  |  | > 42.7 µM | 5.94 µM | 
39 | CCCCOc1ccc(C2CC(=O)C3=C(C2)Nc2ccccc2N(C(=O)CC)C3c2ccccc2)cc1 (mixture of isomers) [compound 217] |  |  |  |  | pIC50 [1, 5]: < 4.37; pEC50 [2, 6]: 4.69
40 | CC1(C)CC(=O)C2=C(C1)Nc1ccccc1N(C(=O)C(F)(F)F)C2c1ccc(Cl)cc1 (stereo not drawn) [compound 56] | < 4.37 | 4.60 |  |  | 
41 | COc1ccc(OC)c(C2Nc3ccccc3NC3=C2C(=O)CC(c2ccc(OC)c(OC)c2)C3)c1 (stereo not drawn) [compound 371] |  |  | > 42.7 µM | 3.74 µM | 
42 | O=C1CC(c2ccc(Cl)cc2)CC2=C1C(c1ccc(C(F)(F)F)cc1)Nc1ccccc1N2 (stereo not drawn) [compound 377] |  |  | > 42.7 µM | 4.46 µM | 
43 | CC1(C)CC(=O)C2=C(C1)Nc1ccccc1NC2c1ccc(OC(F)(F)F)cc1 (stereo not drawn) [compound 434, 11-(4-trifluoromethyloxyphenyl)-3,3-dimethyl-2,3,4,5,10,11-hexahydro-1H-dibenzo[b,e][1,4]diazepin-1-one] |  |  | > 133 µM | 22.9 µM | 
44 | CCCCOc1cccc2c1NC1=C(C(=O)CC(C)(C)C1)C(c1ccc(Cl)cc1Cl)N2C(C)=O (stereo not drawn) [compound 317] | < 3.88 | 5.24 |  |  | 
45 | CC(C)C(=O)N1c2ccccc2NC2=C(C(=O)CC(C)(C)C2)C1c1cccnc1 (stereo not drawn) [compound 259] | 4.53 | < 4.48 |  |  | 
46 | CC1(C)CC(=O)C2=C(C1)Nc1ccccc1NC2c1ccccc1C(=O)O (stereo not drawn) [compound 432] |  |  | > 42.7 µM | 17.7 µM | 
47 | CCOc1cc(C2Nc3ccccc3NC3=C2C(=O)CC(c2ccc(Cl)cc2)C3)cc(Br)c1O (stereo not drawn) [compound 353] |  |  | > 42.7 µM | 5.3 µM | 
48 | COc1cc(C2C3=C(CC(C)(C)CC3=O)Nc3ccccc3N2C(C)=O)ccc1OCc1ccccc1 (stereo not drawn) [compound 124] |  |  |  |  | pIC50 [1, 5]: 5.07; pEC50 [2, 6]: 4.54
